Common to all, as to format: binding
Test [1] concerns the target T1, HeLa cell extract proteins (Homo sapiens, UniProt O43148).
T1 construct: endogenous in cells; host or cells: HeLa cell extract

Test [2] has as its target T2, HeLa cell extract proteins (Homo sapiens, UniProt P04179).
T2 construct: endogenous in cells; host or cells: HeLa cell extract
T2 sequence (P04179 25-222): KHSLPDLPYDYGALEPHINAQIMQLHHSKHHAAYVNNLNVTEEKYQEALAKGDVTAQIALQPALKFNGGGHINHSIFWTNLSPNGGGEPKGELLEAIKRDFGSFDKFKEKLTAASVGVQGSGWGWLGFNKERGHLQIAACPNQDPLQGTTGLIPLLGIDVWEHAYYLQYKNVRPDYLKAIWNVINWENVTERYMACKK

For test [3], the target named is T3, HeLa cell extract proteins (Homo sapiens, UniProt P0DMV8).
T3 construct: endogenous in cells; host or cells: HeLa cell extract

The target in test [4] is T4, HeLa cell extract proteins (Homo sapiens, UniProt P10809).
T4 construct: endogenous in cells; host or cells: HeLa cell extract

Test [5] deals with T5, HeLa cell extract proteins (Homo sapiens, UniProt P43362).
T5 construct: endogenous in cells; host or cells: HeLa cell extract
T5 sequence (P43362 1-315): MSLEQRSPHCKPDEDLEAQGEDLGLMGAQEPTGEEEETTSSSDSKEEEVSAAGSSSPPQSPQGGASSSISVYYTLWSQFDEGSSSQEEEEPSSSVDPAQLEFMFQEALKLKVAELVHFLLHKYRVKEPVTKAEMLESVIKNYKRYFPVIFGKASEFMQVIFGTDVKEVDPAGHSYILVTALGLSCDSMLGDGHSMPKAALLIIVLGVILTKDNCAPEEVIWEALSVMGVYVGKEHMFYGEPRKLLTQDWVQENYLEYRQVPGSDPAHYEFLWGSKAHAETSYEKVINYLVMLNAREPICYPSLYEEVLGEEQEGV

Test [6] concerns the target T6, HeLa cell extract proteins (Homo sapiens, UniProt Q9GZT8).
T6 construct: endogenous in cells; host or cells: HeLa cell extract
T6 sequence (Q9GZT8 1-377): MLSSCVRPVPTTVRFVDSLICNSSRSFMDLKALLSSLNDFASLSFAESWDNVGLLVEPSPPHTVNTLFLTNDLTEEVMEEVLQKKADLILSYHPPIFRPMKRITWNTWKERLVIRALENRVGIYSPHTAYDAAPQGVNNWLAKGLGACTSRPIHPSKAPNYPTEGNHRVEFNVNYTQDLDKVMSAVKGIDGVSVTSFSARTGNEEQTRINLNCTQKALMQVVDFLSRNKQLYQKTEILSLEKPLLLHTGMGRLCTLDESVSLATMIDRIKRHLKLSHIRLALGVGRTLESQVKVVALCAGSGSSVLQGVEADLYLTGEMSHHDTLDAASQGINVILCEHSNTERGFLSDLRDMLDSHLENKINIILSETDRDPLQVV

Test [7] deals with T7, HeLa cell extract proteins (Homo sapiens, UniProt Q9H000).
T7 construct: endogenous in cells; host or cells: HeLa cell extract
T7 sequence (Q9H000 1-416): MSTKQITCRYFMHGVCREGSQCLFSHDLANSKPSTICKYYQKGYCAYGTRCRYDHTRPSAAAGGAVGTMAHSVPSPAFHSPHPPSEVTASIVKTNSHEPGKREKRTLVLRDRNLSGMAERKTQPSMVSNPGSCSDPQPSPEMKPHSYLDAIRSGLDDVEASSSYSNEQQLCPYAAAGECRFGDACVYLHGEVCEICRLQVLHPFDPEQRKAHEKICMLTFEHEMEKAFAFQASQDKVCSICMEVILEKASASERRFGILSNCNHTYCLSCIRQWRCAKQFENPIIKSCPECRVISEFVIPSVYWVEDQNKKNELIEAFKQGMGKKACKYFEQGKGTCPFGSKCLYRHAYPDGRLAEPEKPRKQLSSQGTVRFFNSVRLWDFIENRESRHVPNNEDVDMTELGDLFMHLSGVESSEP

The target in test [8] is T8, HeLa cell extract proteins (Homo sapiens, UniProt Q9HCC0).
T8 construct: endogenous in cells; host or cells: HeLa cell extract
T8 sequence (Q9HCC0 23-563): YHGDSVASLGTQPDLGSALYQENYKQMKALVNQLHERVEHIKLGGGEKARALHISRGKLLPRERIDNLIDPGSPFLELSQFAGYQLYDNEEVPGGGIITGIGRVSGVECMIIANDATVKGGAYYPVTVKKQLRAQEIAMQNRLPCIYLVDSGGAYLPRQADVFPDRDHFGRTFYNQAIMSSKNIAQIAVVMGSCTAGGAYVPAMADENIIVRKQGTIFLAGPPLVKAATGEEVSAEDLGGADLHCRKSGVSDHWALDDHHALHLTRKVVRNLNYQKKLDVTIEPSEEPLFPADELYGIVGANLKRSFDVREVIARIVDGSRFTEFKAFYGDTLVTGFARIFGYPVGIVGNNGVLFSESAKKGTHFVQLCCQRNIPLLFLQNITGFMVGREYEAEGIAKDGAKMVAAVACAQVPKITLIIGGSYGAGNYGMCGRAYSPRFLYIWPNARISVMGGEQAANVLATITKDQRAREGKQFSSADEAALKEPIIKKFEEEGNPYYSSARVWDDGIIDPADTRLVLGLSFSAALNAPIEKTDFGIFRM

Test [9] has as its target T9, HeLa cell extract proteins (Homo sapiens, UniProt Q9Y244).
T9 construct: endogenous in cells; host or cells: HeLa cell extract
T9 sequence (Q9Y244 1-141): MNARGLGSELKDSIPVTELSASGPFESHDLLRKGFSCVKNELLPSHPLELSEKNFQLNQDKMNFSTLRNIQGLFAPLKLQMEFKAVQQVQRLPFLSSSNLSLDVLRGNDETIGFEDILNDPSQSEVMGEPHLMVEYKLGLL

In test [10] the target is T10, HeLa cell extract proteins (Homo sapiens, UniProt Q9Y262).
T10 construct: endogenous in cells; host or cells: HeLa cell extract

The mark [11] stands for this setting: HeLa, protein MKRN2 (MAKORIN-2).

Here are results for seven molecules from article PMC6199744, “Development of Chemical Proteomics for the Folateome and Analysis of the Kinetoplastid Folateome” (ACS Infectious Diseases, 2018).

Read-outs that look alike come from different tables or passages of the source.

T1 sequence (O43148 whole entry): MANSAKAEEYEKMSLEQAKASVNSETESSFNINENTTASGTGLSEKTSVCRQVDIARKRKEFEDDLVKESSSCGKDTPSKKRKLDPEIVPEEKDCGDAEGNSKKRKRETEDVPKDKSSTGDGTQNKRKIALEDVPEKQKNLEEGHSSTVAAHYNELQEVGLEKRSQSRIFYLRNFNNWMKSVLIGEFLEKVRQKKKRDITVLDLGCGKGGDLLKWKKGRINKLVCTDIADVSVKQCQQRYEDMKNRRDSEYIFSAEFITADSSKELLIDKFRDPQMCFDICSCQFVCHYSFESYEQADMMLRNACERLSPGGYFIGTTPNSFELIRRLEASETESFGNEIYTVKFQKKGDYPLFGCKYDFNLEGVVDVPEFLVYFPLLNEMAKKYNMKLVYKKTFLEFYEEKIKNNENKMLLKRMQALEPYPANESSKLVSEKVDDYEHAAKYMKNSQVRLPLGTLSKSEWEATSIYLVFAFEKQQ
T10 sequence (Q9Y262 whole entry): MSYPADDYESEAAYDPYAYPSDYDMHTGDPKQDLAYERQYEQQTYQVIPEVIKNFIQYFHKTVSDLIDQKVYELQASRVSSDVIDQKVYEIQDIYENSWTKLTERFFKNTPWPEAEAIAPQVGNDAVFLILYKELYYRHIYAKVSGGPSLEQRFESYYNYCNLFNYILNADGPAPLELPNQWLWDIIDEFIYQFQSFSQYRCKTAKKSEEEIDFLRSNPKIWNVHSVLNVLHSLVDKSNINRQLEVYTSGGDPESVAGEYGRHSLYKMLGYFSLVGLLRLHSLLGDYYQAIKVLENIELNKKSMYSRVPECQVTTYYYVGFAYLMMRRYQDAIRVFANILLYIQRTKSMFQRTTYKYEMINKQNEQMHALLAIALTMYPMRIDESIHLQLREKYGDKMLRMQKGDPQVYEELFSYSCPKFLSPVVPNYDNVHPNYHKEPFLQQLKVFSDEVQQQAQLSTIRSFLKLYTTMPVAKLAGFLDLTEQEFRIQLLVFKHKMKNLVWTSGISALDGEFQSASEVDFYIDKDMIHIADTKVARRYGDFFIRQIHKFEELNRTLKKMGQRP
T4 sequence (P10809 27-573): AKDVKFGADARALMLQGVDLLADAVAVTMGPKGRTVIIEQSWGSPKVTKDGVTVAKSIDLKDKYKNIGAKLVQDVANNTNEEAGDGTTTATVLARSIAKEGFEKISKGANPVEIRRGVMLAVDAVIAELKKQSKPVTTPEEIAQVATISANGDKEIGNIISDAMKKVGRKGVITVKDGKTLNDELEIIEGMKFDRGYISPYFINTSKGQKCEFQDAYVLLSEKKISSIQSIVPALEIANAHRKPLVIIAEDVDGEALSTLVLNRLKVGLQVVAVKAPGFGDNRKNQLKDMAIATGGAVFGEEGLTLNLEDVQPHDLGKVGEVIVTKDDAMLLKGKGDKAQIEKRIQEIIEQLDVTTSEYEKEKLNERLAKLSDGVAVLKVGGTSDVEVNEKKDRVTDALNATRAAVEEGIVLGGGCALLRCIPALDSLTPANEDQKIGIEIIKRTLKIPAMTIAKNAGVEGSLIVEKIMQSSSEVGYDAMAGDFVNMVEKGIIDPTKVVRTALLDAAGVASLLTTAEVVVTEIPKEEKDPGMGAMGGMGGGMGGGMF
T3 sequence (P0DMV8 whole entry): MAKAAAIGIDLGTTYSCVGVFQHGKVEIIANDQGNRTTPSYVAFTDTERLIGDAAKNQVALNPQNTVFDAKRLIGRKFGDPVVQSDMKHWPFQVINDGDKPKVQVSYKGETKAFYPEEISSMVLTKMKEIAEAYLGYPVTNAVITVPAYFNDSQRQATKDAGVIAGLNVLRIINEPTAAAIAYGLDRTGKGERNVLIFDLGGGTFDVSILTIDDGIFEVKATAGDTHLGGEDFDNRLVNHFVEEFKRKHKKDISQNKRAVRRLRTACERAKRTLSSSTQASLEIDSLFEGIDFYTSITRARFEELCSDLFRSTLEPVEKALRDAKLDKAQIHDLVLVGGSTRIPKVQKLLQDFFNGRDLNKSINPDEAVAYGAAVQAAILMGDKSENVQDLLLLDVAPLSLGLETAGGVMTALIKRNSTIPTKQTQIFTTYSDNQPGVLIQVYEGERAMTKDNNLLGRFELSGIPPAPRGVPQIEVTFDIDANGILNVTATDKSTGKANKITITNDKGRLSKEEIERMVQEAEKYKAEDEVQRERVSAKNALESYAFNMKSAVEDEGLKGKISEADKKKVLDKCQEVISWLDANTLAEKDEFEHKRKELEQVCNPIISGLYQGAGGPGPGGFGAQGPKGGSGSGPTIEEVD

`CCCCCCOc1cccc(Cc2cnc(N)nc2N)c1` [compound 2]: the “fold changes relative to vehicle control” value worked out at 0.97 in test [1] (HeLa, protein RNMT); 2.29 in [2] (protein SOD2, HeLa); 1.09 in test [3] (protein HSPA1A, HeLa); 1.71 in test [4] (protein HSPD1, HeLa); 1.24 in [5] (protein MAGEA9, HeLa); 0.97 in test [6] (captured protein NIF3L1, HeLa). In addition, the “fold changes relative to vehicle control” value was determined as 0.9 in test [7] (captured protein MKRN2, HeLa); 1.08 in test [8] (captured protein MCCC2, HeLa); 0.89 in test [9] (captured protein POMP, HeLa); 1.25 in [10] (protein EIF3L, HeLa).
Turning to `NCCOCCOCC(=O)Nc1nc2ncc(CNc3ccc(C(=O)NC(CCC(=O)O)C(=O)O)cc3)nc2c(=O)[nH]1` (stereo not shown) [compound 6], the “fold changes relative to vehicle control” value in test [1] (HeLa, captured protein RNMT) was determined as 0.79; in [2] (HeLa, protein SOD2) it was 1.65; in test [3] (HeLa, captured protein HSPA1A) it was 1; in test [4] (HeLa, protein HSPD1) it was 1.21; in test [5] (HeLa, protein MAGEA9) it was 1.04; in [6] (protein NIF3L1, HeLa), 0.25. Besides, the “fold changes relative to vehicle control” value amounted to 0.92 in [7] (setting [11]); 1 in test [8] (HeLa, protein MCCC2); 0.86 in [9] (protein POMP, HeLa); 1.07 in test [10] (HeLa, captured protein EIF3L).
For the molecule `CCCCCCOc1ccc(Cc2cnc(N)nc2N)cc1` [compound 1], the “fold changes relative to vehicle control” value in [1] (HeLa, protein RNMT) came out at 0.92; in [2] (protein SOD2, HeLa), 1.91; in [3] (protein HSPA1A, HeLa), 0.97; in test [4] (protein HSPD1, HeLa), 1.32; in [5] (protein MAGEA9, HeLa) it was 0.78; in [6] (captured protein NIF3L1, HeLa), 0.5. Further, the “fold changes relative to vehicle control” value in test [7] (captured protein MKRN2, HeLa) turned out to be 0.9; in test [8] (captured protein MCCC2, HeLa), 0.78; in test [9] (captured protein POMP, HeLa), 0.66; in [10] (protein EIF3L, HeLa), 1.05.
Regarding `Nc1nc2c(c(=O)[nH]1)N(C=O)C(CNc1ccc(C(=O)N[C@@H](CCC(=O)O)C(=O)O)cc1)CN2` (stereo partly shown) [LEU, leucovorin], the “fold changes relative to vehicle control” value in test [1] (HeLa, captured protein RNMT) is on record as 0.88; in test [2] (HeLa, protein SOD2), 1.14; in test [3] (HeLa, captured protein HSPA1A) it was 1.02; in test [4] (HeLa, protein HSPD1), 1.12; in test [5] (HeLa, protein MAGEA9), 0.95; in test [6] (protein NIF3L1, HeLa) it was 0.95. For the same molecule, the “fold changes relative to vehicle control” value in test [7] (setting [11]) is 1.02; in test [8] (HeLa, protein MCCC2), 0.94; in test [9] (protein POMP, HeLa) it was 0.72; in [10] (HeLa, captured protein EIF3L), 1.
For `NCCCNc1ccc(C(=O)NC(CCC(=O)O)C(=O)O)cc1` (stereo not shown) [compound 7], the “fold changes relative to vehicle control” value in test [1] (HeLa, captured protein RNMT) worked out at 1.02; in test [2] (HeLa, protein SOD2) it was 1.35; in test [3] (HeLa, captured protein HSPA1A), 0.99; in test [4] (HeLa, protein HSPD1), 1; in test [5] (HeLa, protein MAGEA9) it was 1; in [6] (protein NIF3L1, HeLa), 0.94. For the same molecule, the “fold changes relative to vehicle control” value in test [7] (setting [11]) is 0.98; in [8] (HeLa, protein MCCC2) it was 1; in test [9] (protein POMP, HeLa) it was 0.85; in test [10] (HeLa, captured protein EIF3L), 0.93.
Turning to `Nc1nc2[nH]cc(CCc3ccc(C(=O)N[C@@H](CCC(=O)O)C(=O)O)cc3)c2c(=O)[nH]1` [PTX, pemetrexed], the “fold changes relative to vehicle control” value in test [1] came out at 0.83; in test [2], 1.29; in [3] it was 0.98; in [4], 1.14; in test [5], 0.82; in test [6], 0.9. The “fold changes relative to vehicle control” value in [7] amounted to 0.91; in test [8], 0.87; in test [9], 0.83; in [10], 0.91.
In the case of `Nc1nc2cccc(-c3ccccc3)c2n1Cc1ccc(Cl)c(Cl)c1` [compound 3], the “fold changes relative to vehicle control” value was 0.93 in test [1] (HeLa, protein RNMT); 1.43 in test [2] (protein SOD2, HeLa); 1 in [3] (protein HSPA1A, HeLa); 1.03 in test [4] (protein HSPD1, HeLa); 0.92 in test [5] (protein MAGEA9, HeLa); 0.98 in [6] (captured protein NIF3L1, HeLa). The “fold changes relative to vehicle control” value in [7] (captured protein MKRN2, HeLa) is recorded as 0.89; in [8] (captured protein MCCC2, HeLa), 0.86; in test [9] (captured protein POMP, HeLa) it was 0.86; in test [10] (protein EIF3L, HeLa) it was 1.09.
